Results reported in ChEMBL document CHEMBL4431301, “The Medicinal Chemistry of Dengue Virus” (J Med Chem, 2016).
Where a SMILES comes first, the peptide text is derived from it.

Key:
[1] = biological target: T1, Genome polyprotein (dengue virus type 2, UniProt P29990); assay: Inhibition of recombinant Dengue virus 2 S-16803 NS2B-NS3 protease using Bz-nKRRAMC as substrate preincubated with enzyme followed by substrate addition measured after 20 mins by fluorescence assay
[2] = Cytotoxicity against BHK21 cells assessed as cell viability after 24 hrs by ATP-Lite assay; assay type: cell-based, Mesocricetus auratus, BHK-21; conditions: hamster
[3] = tested on: dengue virus type 2; assay: Antiviral activity against Dengue virus 2 NGC infected in BHK21 cells assessed as reduction in virus replication after 24 hrs by renilla luciferase reporter gene assay; assay type: functional, organism-based; conditions: BHK-21, 24 h
[4] = biological target: T1, Genome polyprotein; assay: Inhibition of the Dengue virus 2 NS2B-NS3 protease expressed in Escherichia coli BL21(DE3)-RIPL cells using Pyr-RTKR-AMC as substrate preincubated for 30 mins followed by addition of substrate
[5] = tested on: dengue virus type 1; assay: Antiviral activity against Dengue virus 1 Hawaii infected in african green monkey Vero cells assessed as blockage of viral entry after 72 hrs by foci-forming assay; assay type: functional, organism-based
[6] = tested on: dengue virus type 4; assay: Antiviral activity against Dengue virus 4 H241 infected in african green monkey Vero cells assessed as blockage of viral entry after 72 hrs by foci-forming assay; assay type: functional, organism-based
[7] = tested on: dengue virus type 3; assay: Antiviral activity against Dengue virus 3 H87 infected in african green monkey Vero cells assessed as blockage of viral entry after 72 hrs by foci-forming assay; assay type: functional, organism-based
[8] = tested on: dengue virus type 2; assay: Antiviral activity against Dengue virus 2 16681 infected in african green monkey Vero cells assessed as blockage of viral entry after 72 hrs by foci-forming assay; assay type: functional, organism-based; conditions: Dengue virus, 16681, Vero
[9] = biological target: T2, DEN4V NS2B-G4SG4NS3 serine protease (Dengue virus type 4, UniProt P09866); assay: Non-competitive inhibition of Dengue virus 4 NS3 helicase
[10] = tested on: dengue virus type 2; assay: Antiviral activity against Dengue virus 2 NGC infected in african green monkey Vero cells preincubated with virus for 5 mins followed by cell infection for 5 mins by immunofluorescence analysis; assay type: functional, organism-based
[11] = Cytotoxicity against BHK21 cells assessed as cell viability after 48 hrs by Celltiter-Glo luminescent assay; assay type: cell-based, Mesocricetus auratus, BHK-21; conditions: hamster
[12] = tested on: dengue virus type 2; assay: Antiviral activity against Dengue virus 2 infected in human HuH7 cells after 48 hrs by CFI assay; assay type: functional, organism-based; conditions: Huh-7, 48 h
[13] = Cytotoxicity against human HuH7 cells assessed as cell viability after 48 hrs by Celltiter-Glo luminescent assay; assay type: cell-based, Huh-7
[14] = biological target: Genome polyprotein (dengue virus type 2) (UniProt P29990); assay: Inhibition of the Dengue virus 2 NS2B-NS3 protease using Bz-nKRR-AMC as substrate at 300 uM preincubated for 15 mins followed by substrate addition measured after 30 mins by fluorescence assay
[15] = biological target: T1, Genome polyprotein; assay: Inhibition of Dengue virus 2 NS2B-NS3 protease expressed in Escherichia coli using Abz-RRRRSAG-nY-NH2 as substrate preincubated for 20 mins followed by addition of substrate measured after 60 mins by fluorescence assay
[16] = biological target: T2, DEN4V NS2B-G4SG4NS3 serine protease; assay: Inhibition of Dengue virus 4 NS2B-NS3 protease expressed in Escherichia coli using Abz-RRRRSAG-nY-NH2 as substrate preincubated for 20 mins followed by addition of substrate measured after 60 mins by fluorescence assay
[17] = biological target: T1, Genome polyprotein; assay: Inhibition of Dengue virus 3 NS2B-NS3 protease expressed in Escherichia coli using Abz-RRRRSAG-nY-NH2 as substrate preincubated for 20 mins followed by addition of substrate measured after 60 mins by fluorescence assay; design: species or system dengue virus type 3
[18] = biological target: T1, Genome polyprotein; assay: Inhibition of Dengue virus 1 NS2B-NS3 protease expressed in Escherichia coli using Abz-RRRRSAG-nY-NH2 as substrate preincubated for 20 mins followed by addition of substrate measured after 60 mins by fluorescence assay; design: species or system dengue virus type 1
[19] = tested on: dengue virus type 2; assay: Antiviral activity against Dengue virus 2 NGC infected in monkey LLC-MK2 cells preincubated with virus for 1 hr followed by cell infection for 1 hr by focus forming unit assay; assay type: functional, organism-based

**Q.** With `N#C/C(=C\c1ccc(-c2ccc(C(=O)O)cc2)s1)c1nc2cc(Cl)ccc2[nH]1` as the molecule, how does the IC50 [1] read?
**A.** Its IC50 is 5.95 µM.

**Q.** Which CC50 at 24 h [2] does the source give for `Nc1cc(N)c(/N=N/c2ccc(S(=O)(=O)Nc3nccs3)cc2)cc1/N=N/c1ccc(S(=O)(=O)Nc2nccs2)cc1` here?
**A.** Its CC50 at 24 h is 213 µM.

**Q.** What about the EC50 [3] of the same molecule?
**A.** Its EC50 is 39.9 µM.

**Q.** And the IC50 [4]?
**A.** The IC50 was 2.75 µM.

**Q.** With `CC[C@H](C)[C@H](NC(=O)[C@H](Cc1c[nH]c2ccccc12)NC(=O)[C@@H](NC(=O)[C@H](CCC(=O)O)NC(=O)[C@@H](NC(=O)[C@H](CCCNC(=N)N)NC(=O)[C@H](CCC(N)=O)NC(=O)[C@@H](NC(=O)[C@H](Cc1cnc[nH]1)NC(=O)[C@H](CCCCN)NC(=O)[C@H](Cc1c[nH]c2ccccc12)NC(=O)[C@H](C)NC(=O)CNC(=O)[C@H](CCC(=O)O)NC(=O)[C@H](CO)NC(=O)[C@H](CO)NC(=O)[C@H](CCSC)NC(=O)[C@H](Cc1c[nH]c2ccccc12)NC(=O)[C@@H](NC(=O)[C@H](CCC(=O)O)NC(=O)[C@@H](NC(=O)[C@H](CCCNC(=N)N)NC(=O)[C@@H](NC(=O)[C@H](CCC(=O)O)NC(=O)[C@H](CC(C)C)NC(=O)CNC(=O)[C@H](CCSC)NC(=O)CNC(=O)[C@@H](NC(=O)[C@H](Cc1cnc[nH]1)NC(=O)[C@@H]1CCCN1C(=O)[C@@H](NC(=O)[C@H](CC(C)C)NC(=O)[C@H](C)NC(=O)[C@@H](NC(=O)[C@@H](N)CO)C(C)C)C(C)C)C(C)C)[C@@H](C)O)[C@@H](C)O)[C@@H](C)O)C(C)C)[C@@H](C)CC)[C@H](C)O)C(=O)N[C@@H](CC(C)C)C(=O)N[C@@H](CCCNC(=N)N)C(=O)N[C@@H](Cc1cnc[nH]1)C(=O)N1CCC[C@H]1C(=O)NCC(=O)O` as the molecule, how does the EC50 [5] read?
**A.** The EC50 was 24 to 31 µM.

**Q.** What about the EC50 [6] of the same molecule?
**A.** The EC50 was 24 to 31 µM.

**Q.** What about the EC50 [7] of the same molecule?
**A.** Its EC50 is 24 to 31 µM.

**Q.** And the EC50 [8]?
**A.** Its EC50 is 24 to 31 µM.

**Q.** With `Cc1ccc(C(=O)Nc2ccc(S(=O)(=O)O)c3cc(S(=O)(=O)O)cc(S(=O)(=O)O)c23)cc1NC(=O)c1cccc(NC(=O)Nc2cccc(C(=O)Nc3cc(C(=O)Nc4ccc(S(=O)(=O)O)c5cc(S(=O)(=O)O)cc(S(=O)(=O)O)c45)ccc3C)c2)c1` [SURAMIN] as the molecule, how does the Ki [9] read?
**A.** The Ki was 0.75 µM.

**Q.** And the EC50 [10]?
**A.** Its EC50 is 40 µM.

**Q.** With `Cc1cc(N2CCN(C)CC2)ccc1NC(=O)c1c2c(nc3ccccc13)CCN(Cc1ccccc1)C2` as the molecule, how does the CC50 at 48 h [11] read?
**A.** Its CC50 at 48 h is over 300 µM.

**Q.** And the EC50 [12]?
**A.** Its EC50 is 5 µM.

**Q.** What about the CC50 at 48 h [13] of the same molecule?
**A.** Its CC50 at 48 h is 55 µM.

**Q.** And the inhibition [14]?
**A.** Its inhibition is 85%.

**Q.** Which results are given for `NC(=O)[C@H](Cc1c[nH]c2ccccc12)NC(=O)[C@H](CS)NC(=O)[C@H](Cc1ccc(O)cc1)NC(=O)[C@@H](N)Cc1c[nH]c2ccccc12` (H-WYCW-NH2)?
**A.** Ki [15]: 4.8 µM; Ki [16]: 11.2 µM; Ki [17]: 24.4 µM; Ki [18]: 4.2 µM

**Q.** Which IC50 [19] does the source give for `CC[C@H](C)[C@H](NC(=O)[C@H](CC(C)C)NC(=O)[C@@H](NC(=O)[C@H](Cc1ccccc1)NC(=O)[C@H](Cc1c[nH]c2ccccc12)NC(=O)[C@@H](N)Cc1ccccc1)[C@@H](C)O)C(=O)N[C@@H](CCCCN)C(=O)N[C@H](C(=O)N[C@@H](CCC(N)=O)C(=O)N[C@@H](C)C(=O)N[C@@H](CCCCN)C(=O)N[C@@H](CCC(N)=O)C(=O)N1CCC[C@H]1C(=O)N[C@@H](C)C(=O)N[C@@H](CCCNC(=N)N)C(=O)N[C@@H](Cc1ccc(O)cc1)C(=O)N[C@@H](CCCNC(=N)N)C(=O)N[C@@H](CCCNC(=N)N)C(=O)N[C@@H](Cc1ccccc1)C(=O)N[C@@H](CS)C(=O)O)[C@@H](C)O` (H-FWFTLIKTQAKQPARYRRFC-OH) here?
**A.** The IC50 was 7 µM.
